Measurements from PubChem BioAssay AID248 (DTP/NCI, 2004).
Values joined by “and” are separate entries in the source; they are usually repeats but may differ in a detail not shown here. Identical values can stand only once. Inconclusive results and toxic doses are left out.

Tested on: L1210 leukemia ip in BDF1 mice, survival T/C
Experiment: NCI In Vivo Anticancer Drug Screen. Data for tumor model L1210 Leukemia (intraperitoneal) in B6D2F1 (BDF1) mice
Settings: higher = longer survival
How it was run: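 Each compound was tested against a transplantable tumor grown in mice. The endpoint was survival, with treated animals benchmarked against vehicle controls as a simple ratio.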

[1] = endpoint: mean survival time, dose: 50.0 mg/kg/injection, schedule: Q01DX009 (ip), vehicle: saline
[2] = endpoint: mean survival time, dose: 100.0 mg/kg/injection, schedule: Q01DX005 (ip), vehicle: saline
[3] = endpoint: mean survival time, dose: 200.0 mg/kg/injection, schedule: Q01DX009 (ip), vehicle: saline

OCC1OC(n2cnc3c(=S)nc[nH]c32)C(O)C1O (stereo unspecified)
T/C (endpoint: mean survival time, dose: 4.69 mg/kg/injection, schedule: Q01DX009 (ip), vehicle: water): 103 % of control
T/C (endpoint: mean survival time, dose: 9.38 mg/kg/injection, schedule: Q01DX009 (ip), vehicle: water): 109 % of control
T/C (endpoint: mean survival time, dose: 10.0 mg/kg/injection, schedule: Q01DX009 (ip), vehicle: saline): 117 % of control and 120 % of control
T/C (endpoint: mean survival time, dose: 14.02 mg/kg/injection, schedule: Q01DX Z (ip), vehicle: carboxymethylcellulose (CMC)): 121 % of control
T/C (endpoint: mean survival time, dose: 17.88 mg/kg/injection, schedule: Q01DX Z (ip), vehicle: carboxymethylcellulose (CMC)): 119 % of control
T/C (endpoint: mean survival time, dose: 18.25 mg/kg/injection, schedule: Q01DX Z (ip), vehicle: carboxymethylcellulose (CMC)): 122 % of control
T/C (endpoint: mean survival time, dose: 18.75 mg/kg/injection, schedule: Q01DX009 (ip), vehicle: water): 117 % of control
T/C (endpoint: mean survival time, dose: 20.0 mg/kg/injection, schedule: Q01DX010 (ip), vehicle: saline): 111 % of control
T/C (endpoint: mean survival time, dose: 23.83 mg/kg/injection, schedule: Q01DX Z (ip), vehicle: carboxymethylcellulose (CMC)): 115 % of control
T/C (endpoint: mean survival time, dose: 35.75 mg/kg/injection, schedule: Q01DX Z (ip), vehicle: carboxymethylcellulose (CMC)): 123 % of control
T/C (endpoint: mean survival time, dose: 36.5 mg/kg/injection, schedule: Q01DX Z (ip), vehicle: carboxymethylcellulose (CMC)): 123 % of control
T/C (endpoint: mean survival time, dose: 37.5 mg/kg/injection, schedule: Q01DX009 (ip), vehicle: water): 112 % of control
T/C (endpoint: mean survival time, dose: 37.5 mg/kg/injection, schedule: Q01DX Z (ip), vehicle: carboxymethylcellulose (CMC)): 100 % of control
T/C [1]: 121 % of control
T/C (endpoint: mean survival time, dose: 75.0 mg/kg/injection, schedule: Q01DX015 (ip), vehicle: carboxymethylcellulose (CMC)): 151 % of control
T/C (endpoint: mean survival time, dose: 75.0 mg/kg/injection, schedule: Q01DX Z (ip), vehicle: carboxymethylcellulose (CMC)): 113 % of control
T/C [2]: 123 % of control
T/C (endpoint: mean survival time, dose: 100.0 mg/kg/injection, schedule: Q01DX009 (ip), vehicle: carboxymethylcellulose (CMC)): 114 % of control
T/C (endpoint: mean survival time, dose: 107.25 mg/kg/injection, schedule: Q01DX Z (ip), vehicle: carboxymethylcellulose (CMC)): 152 % of control
T/C (endpoint: mean survival time, dose: 120.0 mg/kg/injection, schedule: Q01DX001 (ip), vehicle: carboxymethylcellulose (CMC)): 98 % of control
T/C (endpoint: mean survival time, dose: 125.0 mg/kg/injection, schedule: Q03HX024 (ip), vehicle: saline): 114 % of control
T/C (endpoint: mean survival time, dose: 150.0 mg/kg/injection, schedule: Q## X Z (ip), vehicle: carboxymethylcellulose (CMC)): 107 % of control
T/C (endpoint: mean survival time, dose: 160.0 mg/kg/injection, schedule: Q01DX010 (ip), vehicle: saline): 153 % of control and 155 % of control
T/C (endpoint: mean survival time, dose: 180.0 mg/kg/injection, schedule: Q01DX001 (ip), vehicle: alkali diluted with saline): 108 % of control
T/C (endpoint: mean survival time, dose: 180.0 mg/kg/injection, schedule: Q01DX001 (ip), vehicle: carboxymethylcellulose (CMC)): 118 % of control
T/C (endpoint: mean survival time, dose: 188.0 mg/kg/injection, schedule: Q03HX024 (ip), vehicle: clinical formulation): 104 % of control
T/C (endpoint: mean survival time, dose: 188.0 mg/kg/injection, schedule: Q03HX024 (ip), vehicle: saline): 115 % of control
T/C [3]: 163 % of control and 181 % of control
T/C (endpoint: mean survival time, dose: 270.0 mg/kg/injection, schedule: Q01DX001 (ip), vehicle: alkali diluted with saline): 119 % of control
T/C (endpoint: mean survival time, dose: 270.0 mg/kg/injection, schedule: Q01DX001 (ip), vehicle: carboxymethylcellulose (CMC)): 114 % of control
T/C (endpoint: mean survival time, dose: 300.0 mg/kg/injection, schedule: Q03HX024 (ip), vehicle: saline): 95 % of control and 108 % of control
T/C (endpoint: mean survival time, dose: 320.0 mg/kg/injection, schedule: Q01DX009 (ip), vehicle: saline): 152 % of control and 166 % of control
T/C (endpoint: mean survival time, dose: 600.0 mg/kg/injection, schedule: Q01DX001 (ip), vehicle: alkali diluted with saline): 120 % of control
T/C (endpoint: mean survival time, dose: 600.0 mg/kg/injection, schedule: Q## X Z (ip), vehicle: carboxymethylcellulose (CMC)): 93 % of control
T/C (endpoint: mean survival time, dose: 800.0 mg/kg/injection, schedule: Q01DX001 (ip), vehicle: saline): 103 % of control
T/C (endpoint: mean survival time, dose: 800.0 mg/kg/injection, schedule: Q01DX009 (ip), vehicle: carboxymethylcellulose (CMC)): 122 % of control
T/C (endpoint: mean survival time, dose: 1000.0 mg/kg/injection, schedule: Q## X Z (ip), vehicle: carboxymethylcellulose (CMC)): 121 % of control
T/C (endpoint: mean survival time, dose: 1200.0 mg/kg/injection, schedule: Q01DX001 (ip), vehicle: saline): 107 % of control
T/C (endpoint: mean survival time, dose: 1600.0 mg/kg/injection, schedule: Q01DX001 (ip), vehicle: saline): 114 % of control
T/C (endpoint: median survival time, dose: 50.0 mg/kg/injection, schedule: Q03HX024 (ip), vehicle: other): 155 % of control
T/C (endpoint: median survival time, dose: 100.0 mg/kg/injection, schedule: Q03HX024 (ip), vehicle: other): 155 % of control
T/C (endpoint: median survival time, dose: 100.0 mg/kg/injection, schedule: Q03HX024 (sc), vehicle: other): 150 % of control
T/C (endpoint: median survival time, dose: 200.0 mg/kg/injection, schedule: Q03HX024 (ip), vehicle: other): 155 % of control
T/C (endpoint: median survival time, dose: 200.0 mg/kg/injection, schedule: Q03HX024 (sc), vehicle: other): 155 % of control
T/C (endpoint: median survival time, dose: 400.0 mg/kg/injection, schedule: Q03HX024 (ip), vehicle: other): 111 % of control
T/C (endpoint: median survival time, dose: 800.0 mg/kg/injection, schedule: Q01DX001 (ip), vehicle: other): 111 % of control
T/C (endpoint: median survival time, dose: 800.0 mg/kg/injection, schedule: Q01DX001 (sc), vehicle: other): 111 % of control
T/C (endpoint: median survival time, dose: 800.0 mg/kg/injection, schedule: Q04DX003 (ip), vehicle: other): 122 % of control
T/C (endpoint: median survival time, dose: 800.0 mg/kg/injection, schedule: Q04DX003 (sc), vehicle: other): 122 % of control
T/C (endpoint: median survival time, dose: 1600.0 mg/kg/injection, schedule: Q01DX001 (ip), vehicle: other): 116 % of control
T/C (endpoint: median survival time, dose: 1600.0 mg/kg/injection, schedule: Q01DX001 (sc), vehicle: other): 116 % of control
T/C (endpoint: median survival time, dose: 3200.0 mg/kg/injection, schedule: Q01DX009 (sc), vehicle: other): 100 % of control
T/C (endpoint: median survival time, dose: 3200.0 mg/kg/injection, schedule: Q04DX003 (sc), vehicle: other): 150 % of control

O=C(O)C(Cc1ccsc1)C(=O)O
T/C (endpoint: mean survival time, dose: 100.0 mg/kg/injection, schedule: Q01DX001 (ip), vehicle: saline): 101 % of control
T/C (endpoint: mean survival time, dose: 200.0 mg/kg/injection, schedule: Q01DX001 (ip), vehicle: saline): 93 % of control

O=C(NCCCCCCNC(=O)NCc1ccc(Cl)c(Cl)c1)NCc1ccc(Cl)c(Cl)c1
T/C (endpoint: mean survival time, dose: 100.0 mg/kg/injection, schedule: Q01DX009 (ip), vehicle: other): 97 % of control
T/C (endpoint: mean survival time, dose: 200.0 mg/kg/injection, schedule: Q01DX009 (ip), vehicle: other): 86 % of control
T/C (endpoint: mean survival time, dose: 400.0 mg/kg/injection, schedule: Q01DX009 (ip), vehicle: other): 95 % of control

CC1(C)CCC(NC(=O)NCCF)CC1
T/C (endpoint: mean survival time, dose: 9.5 mg/kg/injection, schedule: Q01DX001 (ip), vehicle: other): 95 % of control
T/C (endpoint: mean survival time, dose: 19.0 mg/kg/injection, schedule: Q01DX001 (ip), vehicle: other): 102 % of control
T/C (endpoint: mean survival time, dose: 38.0 mg/kg/injection, schedule: Q01DX001 (ip), vehicle: other): 101 % of control

O=C1C(c2ccccc2)=CC(c2ccccc2)=C1c1ccccc1
T/C (endpoint: mean survival time, dose: 50.0 mg/kg/injection, schedule: Q01DX001 (ip), vehicle: carboxymethylcellulose (CMC)): 91 % of control
T/C (endpoint: mean survival time, dose: 100.0 mg/kg/injection, schedule: Q01DX001 (ip), vehicle: carboxymethylcellulose (CMC)): 91 % of control
T/C (endpoint: mean survival time, dose: 200.0 mg/kg/injection, schedule: Q01DX001 (ip), vehicle: carboxymethylcellulose (CMC)): 94 % of control
T/C (endpoint: mean survival time, dose: 400.0 mg/kg/injection, schedule: Q01DX001 (ip), vehicle: carboxymethylcellulose (CMC)): 94 % of control

CCN(CC)CCCC(C)NCCCN (stereo unspecified)
T/C [1]: 94 % of control
T/C (endpoint: mean survival time, dose: 100.0 mg/kg/injection, schedule: Q01DX009 (ip), vehicle: saline): 100 % of control and 106 % of control
T/C (endpoint: mean survival time, dose: 100.0 mg/kg/injection, schedule: Q04DX003 (ip), vehicle: saline): 90 % of control
T/C [3]: 104 % of control and 92 % of control
T/C (endpoint: mean survival time, dose: 200.0 mg/kg/injection, schedule: Q04DX003 (ip), vehicle: saline): 90 % of control

CC(=O)c1ccc2c(c1)-c1ccccc1C(=O)C2=O
T/C (endpoint: mean survival time, dose: 100.0 mg/kg/injection, schedule: Q04DX003 (ip), vehicle: saline with Tween-80): 89 % of control
T/C (endpoint: mean survival time, dose: 200.0 mg/kg/injection, schedule: Q04DX003 (ip), vehicle: saline with Tween-80): 94 % of control
T/C (endpoint: mean survival time, dose: 400.0 mg/kg/injection, schedule: Q04DX003 (ip), vehicle: saline with Tween-80): 91 % of control

CC1(C)OB(C(Br)(B2OC(C)(C)C(C)(C)O2)B2OC(C)(C)C(C)(C)O2)OC1(C)C
T/C (endpoint: mean survival time, dose: 100.0 mg/kg/injection, schedule: Q01DX001 (ip), vehicle: Klucel (hydroxypropylcellulose) (HPC)): 100 % of control
T/C (endpoint: mean survival time, dose: 200.0 mg/kg/injection, schedule: Q01DX001 (ip), vehicle: Klucel (hydroxypropylcellulose) (HPC)): 100 % of control
T/C (endpoint: mean survival time, dose: 400.0 mg/kg/injection, schedule: Q01DX001 (ip), vehicle: Klucel (hydroxypropylcellulose) (HPC)): 108 % of control

COC(=O)c1n[nH]c(C2OCC3OC(C)(C)OC32)c1Br (stereo unspecified)
T/C [2]: 100 % of control
T/C (endpoint: mean survival time, dose: 200.0 mg/kg/injection, schedule: Q01DX005 (ip), vehicle: saline): 91 % of control

O=C(O)c1cccc(F)c1.[Ni]
T/C (endpoint: mean survival time, dose: 25.0 mg/kg/injection, schedule: Q04DX002 (ip), vehicle: gum acacia): 100 % of control
T/C (endpoint: mean survival time, dose: 50.0 mg/kg/injection, schedule: Q04DX002 (ip), vehicle: gum acacia): 103 % of control
T/C (endpoint: mean survival time, dose: 100.0 mg/kg/injection, schedule: Q04DX002 (ip), vehicle: gum acacia): 117 % of control
